In patent US7183075B2, “Purified and isolated potassium-chloride cotransporter nucleic acids and polypeptides and therapeutic and screening methods using same” (Vanderbilt University, priority 2000, dated 2007):
Where two headings read alike, the source gives them in different places. Each block holds one compound with its values, some of them ahead of it.

Target: T1, mKCC4 (Mus musculus, UniProt Q9WVL3)
T1 construct: a full-length mKCC4 cDNA was used as a standard in the Xenopus expression vector pGEMHE; expressed in transfected cells; host or cells: Xenopus laevis oocytes injected with cRNA (pGEMHE, T7 transcript)
T1 sequence (Q9WVL3 1-1083 L71X/L155X/L467X/L586X/L639X/L1023X): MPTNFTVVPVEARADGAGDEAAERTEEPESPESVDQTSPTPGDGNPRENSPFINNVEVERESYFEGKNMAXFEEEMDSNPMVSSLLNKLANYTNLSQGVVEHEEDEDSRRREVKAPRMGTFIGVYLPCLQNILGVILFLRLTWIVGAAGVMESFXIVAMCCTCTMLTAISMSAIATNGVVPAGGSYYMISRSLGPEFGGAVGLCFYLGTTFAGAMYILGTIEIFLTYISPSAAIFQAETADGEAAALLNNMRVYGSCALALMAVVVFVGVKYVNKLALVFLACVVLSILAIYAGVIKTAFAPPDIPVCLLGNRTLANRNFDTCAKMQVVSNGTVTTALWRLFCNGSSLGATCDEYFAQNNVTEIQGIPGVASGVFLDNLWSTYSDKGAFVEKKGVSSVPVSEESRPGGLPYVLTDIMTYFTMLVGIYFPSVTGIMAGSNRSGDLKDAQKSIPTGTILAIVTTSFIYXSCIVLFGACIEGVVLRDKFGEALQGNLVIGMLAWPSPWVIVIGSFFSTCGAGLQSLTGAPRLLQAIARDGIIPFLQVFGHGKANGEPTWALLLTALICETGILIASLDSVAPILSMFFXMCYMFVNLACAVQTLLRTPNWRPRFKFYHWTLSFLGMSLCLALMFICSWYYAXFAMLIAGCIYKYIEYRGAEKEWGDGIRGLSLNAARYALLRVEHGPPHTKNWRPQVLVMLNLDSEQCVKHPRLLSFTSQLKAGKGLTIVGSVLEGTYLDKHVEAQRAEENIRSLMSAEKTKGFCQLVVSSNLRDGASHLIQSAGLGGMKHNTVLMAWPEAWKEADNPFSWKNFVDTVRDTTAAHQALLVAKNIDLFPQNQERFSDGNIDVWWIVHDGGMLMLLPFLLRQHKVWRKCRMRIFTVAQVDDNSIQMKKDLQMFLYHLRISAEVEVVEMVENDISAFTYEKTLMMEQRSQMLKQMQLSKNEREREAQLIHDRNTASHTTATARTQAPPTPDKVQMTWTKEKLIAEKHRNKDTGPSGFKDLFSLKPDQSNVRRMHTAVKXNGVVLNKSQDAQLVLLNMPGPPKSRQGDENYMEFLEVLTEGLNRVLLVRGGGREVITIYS
Assay: 86Rb+ uptake (K+-Cl- cotransport) in Xenopus oocytes injected with mKCC4 cRNA
Type: cell-based
Conditions: for relative KCC4 activity: 2 mM diuretic; for KCC4 function remaining: 100 μM DIDS; for effect on activation of KCC4 by cell swelling: calyculin A 100 nM, okadaic acid 1 nM, cypermethrin 100 pM
Method: Oocytes were surgically collected from anesthetized female Xenopus adults under 0.17% tricaine and incubated for 1 hour with vigorous shaking in frog Ringer ND96 (96 mM sodium chloride, 2 mM potassium chloride, 1.8 mM calcium chloride, 1.0 mM magnesium chloride, and 5 mM Hepes/Tris, pH 7.4) in the presence of 2 mg/ml collagenase B. Oocytes were then washed four times in ND96, manually defolliculated, and incubated overnight in ND96 at 18° C. On the next day, defolliculated stage V–VI oocytes were injected with 50 nl of water or a solution containing cRNA at a concentration of 0.25–0.5 μg/μl (25 ng/oocyte). Oocytes were incubated at 17–18° C. in ND96 (96 mM sodium chloride, 2 mM potassium chloride, 1.8 mM calcium chloride, 1.0 mM magnesium chloride, and 5 mM Hepes/Tris, pH 7.4), supplemented with 2.5 mM sodium pyruvate and 5 mg/100 ml gentamicin, for 3–4 days. The incubation medium was changed every 24 hours. On the day of the experiment, oocytes were switched to Cl^−-free ND96 (96 mM Na^+ Na^+ isethionate, 2 mM K^+ gluconate, 6 mM Ca^2+ gluconate, 1 mM Mg^2+ gluconate, 5 mM Hepes, 2.5 mM sodium pyruvate, 5 mg/100 ml gentamicin, pH 7.4) for 2 hours prior to the uptake assay.
For functional expression and in vitro translation, a full-length mKCC4 cDNA was used as a standard in the Xenopus expression vector pGEMHE (Liman et al. (1992) Neuron 9:861–871). The resulting construct contains nucleotides 55–3812 of mKCC4 (SEQ ID NO:13). For functional comparison with mKCC4, a full-length rabbit KCC1 cDNA was subcloned into pGEMHE. […] […] Transcription product integrity was confirmed on agarose gels, and concentration was determined by absorbance reading at 260 nm (DU 640 available from Beckman of Fullerton, Calif.).
K^+—Cl^− cotransport was assessed by measuring tracer ^86Rb^+ uptake (NEN® Life Science Products of Boston, Mass.) in experimental groups of at least 15 oocytes. […] All uptake solutions also contained 1.8 mM CaCl2, 1 mM MgCl2, 5 mM Hepes, pH 7.4, and were supplemented with 1 mM ouabain and […] ^86Rb^+. Isotonic conditions were generated by supplementing the same solutions with 3.5 g/100 ml sucrose to reach isosmolar conditions for oocytes (˜210 mOsm/kg). Ouabain was added to prevent ^86Rb^+ uptake via the Na^+—K^+-ATPase. The absence of extracellular Na^+ and the hypotonicity of the uptake medium prevented ^86Rb^+ uptake via the endogenous Na^+—K^+-2Cl^− cotransporter that is present in oocytes (Gamba et al. (1994) J Biol Chem 269:17713–17722).
All uptake assays were performed at 32° C. At the end of the uptake period, oocytes were washed five times in ice-cold uptake solution without isotope to remove extracellular fluid tracer. Oocytes were dissolved in 10% SDS, and tracer activity was determined for each oocyte by β-scintillation counting.
To determine the ion transport kinetics of KCC4 and KCC1, ^86Rb^+ uptake experiments were performed in variable concentrations of K^+ and Cl^−. […]

[1] = 2 mM extracellular K+, hypotonic
[2] = 50 mM extracellular K+, hypotonic
[3] = KCC4, counterion fixed at 50 mM, hypotonic
[4] = KCC4, counterion fixed at 50 mM, hypotonic, read-out: calculated apparent Km for extracellular ion concentration

relative KCC4 activity [1]: 90±4%
relative KCC4 activity [2]: 17±4%
IC50 (KCC4, 10 mM extracellular K+, read-out: apparent half-maximal inhibition (K=0.5) of Cl−-dependent 86Rb+ uptake): ~900 µM
Compound: CCCCNc1cc(C(=O)O)cc(S(N)(=O)=O)c1Oc1ccccc1 [bumetanide]

effect on KCC4-induced 86Rb+ uptake (100 μM DIOA, hypotonic): inhibition
Compound: CCCCC1(C2CCCC2)Cc2cc(OCC(=O)O)c(Cl)c(Cl)c2C1=O (stereo not drawn) [DIOA]

KCC4 function remaining [1]: 65±10%
KCC4 function remaining [2]: 13±4%
Compound: O=S(=O)(O)c1cc(N=C=S)ccc1C=Cc1ccc(N=C=S)cc1S(=O)(=O)O [DIDS]

Compound: C=C1[C@@H](O)[C@@H]2O[C@]3(CC[C@H](/C=C/[C@@H](C)[C@@H]4CC(C)=C[C@@]5(O[C@H](C[C@@](C)(O)C(=O)O)CC[C@H]5O)O4)O3)CC[C@H]2O[C@@H]1[C@@H](O)C[C@H](C)[C@H]1O[C@@]2(CCCCO2)CC[C@H]1C [okadaic acid]
effect on activation of KCC4 by cell swelling (hypotonic): neither okadaic acid, nor cypermethrin prevented this activation

Compound: CCN1C(=O)C=CC1=O [NEM, N-ethylmaleimide]
reduction of KCC4-induced 86Rb+ uptake (1 mM NEM, hypotonic): 68%
fold activation of KCC4 (1 mM NEM, isotonic): 5 fold
86Rb+ uptake in NEM-treated group (KCC4, 1 mM NEM, isotonic): 1062±70 pmol×oocyte^−1×hour^−1

Compound: [K+] [Potassium]
Hill coefficient (KCC4): 1.08±0.2
calculated apparent Vmax for extracellular ion concentration [3]: 32,370±2,115 pmol×oocyte^−1×hour^−1
Km [4]: 17.5 ± 2.7 mM
Km (KCC4, read-out: Potassium Km): 17.5 mM

relative KCC4 activity [1]: 79±3%
relative KCC4 activity [2]: 57±9%
Compound: NS(=O)(=O)c1cc2c(cc1Cl)NC(C(Cl)Cl)NS2(=O)=O (stereo not drawn) [trichlormethiazide]

Compound: [Ba+2].[Cl-].[Cl-] [BaCl2]
KCC4-induced influx, % of uptake in control oocytes (10 mM BaCl2 in hypotonic uptake medium): 58±4.3%

Compound: CC1(C)C(C=C(Cl)Cl)C1C(=O)OC(C#N)c1cccc(Oc2ccccc2)c1 (stereo not drawn) [cypermethrin]
effect on activation of KCC4 by cell swelling (hypotonic): neither okadaic acid, nor cypermethrin prevented this activation

Compound: HgCl2 [Hg—Cl2]
response of KCC4 to mercury (50 μM HgCl2, hypotonic): sensitive

Compound: Cl [Chloride]
Hill coefficient (KCC4): 1.06±0.3
calculated apparent Vmax for extracellular ion concentration [3]: 41,440±4,174 pmol×oocyte^−1×hour^−1
Km [4]: 16.1 ± 4.2 mM
Km (KCC4, read-out: Chloride Km): 15.3 mM

Compound: COC[C@@H]([C@H](O)[C@H](O)C(=O)NCC[C@H](C)c1nc(/C=C/C[C@@H]2O[C@]3(C[C@@H](O)[C@@H]2C)O[C@H]([C@H](C[C@H](O)[C@H](C)[C@H](O)[C@H](C)/C=C(C)/C(C)=C/C=C/C(C)=C\C#N)OC)[C@H](OP(=O)(O)O)C3(C)C)co1)N(C)C [calyculin A]
effect on activation of KCC4 by cell swelling (hypotonic): completely prevents the activation
